Measured values taken from publication PMC4445471, “Piezo1 ion channel pore properties are dictated by C-terminal region” (Nature Communications, 2015).

Tests used:
Assay in all cases: whole-cell patch clamp, mechanically activated current block
Assay type in all cases: cell-based
mPiezo1 [1] = molecular target: T1, mPiezo1 (Mus musculus, UniProt E2JF22, E2133D); settings: -80 mV; extracellular RR; pH 7.3; room temperature
T1 construct: gene Piezo1; full length, 2547 residues, IRES-EGFP pcDNA3.1(-) vector, transfected HEK293T

mPiezo1 [2] = molecular target: T2, mPiezo1 (Mus musculus, UniProt E2JF22); settings: -80 mV; extracellular RR; pH 7.3; room temperature; voltage-dependent pore block
T2 construct: gene Piezo1; full length, 2547 residues, IRES-EGFP pcDNA3.1(-) vector, transfected HEK293T

mPiezo2 [3] = molecular target: T3, mPiezo2 (Mus musculus, UniProt Q8CD54, E2416K); settings: -80 mV; extracellular RR; pH 7.3; room temperature
T3 construct: gene Piezo2; full length, pCMV-Sport6 vector (printed for the E2416K mutant), transfected HEK293T

mPiezo1 [4] = molecular target: T4, mPiezo1 (Mus musculus, UniProt E2JF22, E2133Q); settings: -80 mV; extracellular RR; pH 7.3; room temperature
T4 construct: gene Piezo1; full length, 2547 residues, IRES-EGFP pcDNA3.1(-) vector, transfected HEK293T

mPiezo1 [5] = molecular target: T5, mPiezo1 (Mus musculus, UniProt E2JF22, E2133K); settings: -80 mV; extracellular RR; pH 7.3; room temperature
T5 construct: gene Piezo1; full length, 2547 residues, IRES-EGFP pcDNA3.1(-) vector, transfected HEK293T

mPiezo2 [6] = molecular target: T6, mPiezo2 (Mus musculus, UniProt Q8CD54); settings: -80 mV; extracellular RR; pH 7.3; room temperature
T6 construct: gene Piezo2; full length, pCMV-Sport6 vector (printed for the E2416K mutant), transfected HEK293T

T2 sequence (E2JF22 whole entry): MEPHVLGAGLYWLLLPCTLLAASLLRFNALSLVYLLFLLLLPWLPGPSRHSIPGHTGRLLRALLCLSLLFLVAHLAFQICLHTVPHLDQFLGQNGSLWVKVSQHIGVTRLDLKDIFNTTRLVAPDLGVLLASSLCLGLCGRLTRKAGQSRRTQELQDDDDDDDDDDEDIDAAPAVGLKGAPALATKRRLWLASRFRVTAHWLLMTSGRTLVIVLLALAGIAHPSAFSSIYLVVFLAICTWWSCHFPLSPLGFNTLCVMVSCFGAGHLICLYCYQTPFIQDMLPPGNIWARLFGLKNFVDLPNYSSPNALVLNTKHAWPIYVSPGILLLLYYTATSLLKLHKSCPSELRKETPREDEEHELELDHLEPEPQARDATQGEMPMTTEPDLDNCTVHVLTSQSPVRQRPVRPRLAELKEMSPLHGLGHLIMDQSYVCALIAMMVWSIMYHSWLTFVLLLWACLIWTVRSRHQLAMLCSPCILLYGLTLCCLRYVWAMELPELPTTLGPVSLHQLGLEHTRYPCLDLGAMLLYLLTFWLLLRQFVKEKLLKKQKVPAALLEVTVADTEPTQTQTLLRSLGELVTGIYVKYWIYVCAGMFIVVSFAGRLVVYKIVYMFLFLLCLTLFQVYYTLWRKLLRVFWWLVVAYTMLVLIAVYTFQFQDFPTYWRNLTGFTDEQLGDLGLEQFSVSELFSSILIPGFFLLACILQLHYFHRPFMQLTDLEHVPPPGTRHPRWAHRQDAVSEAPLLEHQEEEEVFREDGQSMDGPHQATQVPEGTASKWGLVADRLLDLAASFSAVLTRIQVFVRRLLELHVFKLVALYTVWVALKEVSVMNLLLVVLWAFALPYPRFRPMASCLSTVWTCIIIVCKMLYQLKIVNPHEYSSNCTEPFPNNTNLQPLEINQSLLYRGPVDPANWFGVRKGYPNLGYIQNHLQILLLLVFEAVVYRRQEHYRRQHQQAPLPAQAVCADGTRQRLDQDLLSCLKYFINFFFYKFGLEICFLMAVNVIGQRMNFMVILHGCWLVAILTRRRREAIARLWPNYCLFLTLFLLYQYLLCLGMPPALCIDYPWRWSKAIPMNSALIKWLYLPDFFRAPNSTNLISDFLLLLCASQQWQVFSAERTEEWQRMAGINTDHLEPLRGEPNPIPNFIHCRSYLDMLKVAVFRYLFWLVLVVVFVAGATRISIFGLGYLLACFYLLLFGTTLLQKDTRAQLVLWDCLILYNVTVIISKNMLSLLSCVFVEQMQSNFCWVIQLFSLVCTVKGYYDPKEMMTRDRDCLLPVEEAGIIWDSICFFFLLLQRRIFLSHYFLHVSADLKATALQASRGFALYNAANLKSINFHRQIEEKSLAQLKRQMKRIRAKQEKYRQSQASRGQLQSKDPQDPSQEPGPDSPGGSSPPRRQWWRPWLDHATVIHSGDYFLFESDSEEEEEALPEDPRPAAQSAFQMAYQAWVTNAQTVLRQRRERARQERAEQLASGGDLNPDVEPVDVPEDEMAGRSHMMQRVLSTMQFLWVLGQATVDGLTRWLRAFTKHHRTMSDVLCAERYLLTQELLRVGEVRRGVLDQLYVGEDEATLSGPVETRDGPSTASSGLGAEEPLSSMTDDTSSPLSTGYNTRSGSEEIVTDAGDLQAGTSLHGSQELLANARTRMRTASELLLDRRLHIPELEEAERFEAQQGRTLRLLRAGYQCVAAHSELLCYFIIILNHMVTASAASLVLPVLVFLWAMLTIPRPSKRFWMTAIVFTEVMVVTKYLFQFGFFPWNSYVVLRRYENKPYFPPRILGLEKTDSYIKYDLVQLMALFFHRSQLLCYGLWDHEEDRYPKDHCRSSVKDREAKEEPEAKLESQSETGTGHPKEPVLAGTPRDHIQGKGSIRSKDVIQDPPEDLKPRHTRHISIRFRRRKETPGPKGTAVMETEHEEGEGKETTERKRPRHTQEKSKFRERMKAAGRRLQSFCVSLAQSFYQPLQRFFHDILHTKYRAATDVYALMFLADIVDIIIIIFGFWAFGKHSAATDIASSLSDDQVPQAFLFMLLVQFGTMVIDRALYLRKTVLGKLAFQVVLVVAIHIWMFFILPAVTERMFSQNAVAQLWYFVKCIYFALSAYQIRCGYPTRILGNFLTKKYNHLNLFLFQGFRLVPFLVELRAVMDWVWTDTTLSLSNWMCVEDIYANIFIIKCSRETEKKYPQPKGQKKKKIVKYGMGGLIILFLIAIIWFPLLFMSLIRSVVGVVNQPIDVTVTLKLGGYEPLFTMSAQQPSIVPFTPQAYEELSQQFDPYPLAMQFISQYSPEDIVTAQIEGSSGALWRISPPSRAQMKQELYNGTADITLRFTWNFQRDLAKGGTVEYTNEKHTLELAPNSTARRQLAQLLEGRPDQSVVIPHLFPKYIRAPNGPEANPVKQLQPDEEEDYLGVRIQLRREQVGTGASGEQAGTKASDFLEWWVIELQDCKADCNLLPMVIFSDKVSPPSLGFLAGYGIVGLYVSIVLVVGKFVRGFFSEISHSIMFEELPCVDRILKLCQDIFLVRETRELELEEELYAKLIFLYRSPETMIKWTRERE
T1 sequence (E2JF22 whole entry E2133D): as the sequence (E2JF22 whole entry) above, with E2133D counted along it
T4 sequence (E2JF22 whole entry E2133Q): as the sequence (E2JF22 whole entry) above, with E2133Q counted along it
T5 sequence (E2JF22 whole entry E2133K): as the sequence (E2JF22 whole entry) above, with E2133K counted along it

`N.N.N.N.N.N.N.N.N.N.N.N.N.N.[Cl-].[Cl-].[Cl-].[Cl-].[Cl-].[Cl-].[O-2].[O-2].[Ru+3].[Ru+3].[Ru+4]` [ruthenium red] was tested, and the IC50 (mPiezo1 [1]) was 1.26 ± 0.28 µM, the IC50 (mPiezo1 [2]) was 4.71 ± 0.83 µM and the “% block at 30 μM” value (mPiezo2 [3]) was 49.6±4.6%. The IC50 (mPiezo1 [4]) was 5.62 ± 1.27 µM, the “% block at 30 μM” value (mPiezo1 [5]) was 8.1±7.1% and the “% block at 30 μM” value (mPiezo2 [6]) was 70.8±1.4%.
